Values quoted from earlier work, collected in patent publication US20140308726A1, “Controlling Bacterial Biofilms in Ethanol Production” (ANITOX CORPORATION, priority 2011, published 2014).
Where two headings read alike, the source gives them in different places.

What was measured:
[1] = test system: Lactobacillus; settings: 600 mg/L
[2] = test system: Lactobacillus; settings: 8.6 ppm Nisin combined with 0.1% Tween 20
[3] = test system: yeast; settings: 8 g/L; beet molasses batch fermentation

Compound: O=C(O)CCC(=O)O [Succinic acid]
- Reduction of Lactobacillus concentrations ([1]; by itself): 78%
- Reduction of Lactobacillus concentrations ([1]; in the presence of ethanol): up to 96%

Compound: Nisin
- Delay of the lag phase of lactobacillus [2]: 12 h

Compound: CC(O)C(=O)O (centres unmarked) [lactic acid]
- Reduction of alcohol production rate [3]: 80%
- Reduction of yeast viability [3]: 95%
